In the Kinase Knowledgebase extract (Sharma et al. 2016):

Each compound was assayed against CDK2 (UniProt P24941) (assay: Enzyme Assay). Conditions: concentration not given here.
In the case of `CC(c1ccccc1)c1cc(C(N)=O)c(NC(=O)C(c2ccccc2)C(C)C)s1` (stereo not given), the inhibition is reported as 100%.
In the case of `CC(C)C(=O)Nc1sc2c(c1C(N)=O)CCCC2`, the inhibition is reported as 100%.
Work on `Cc1ccoc1C(=O)Nc1sc2c(c1C(N)=O)CCCC2` yielded an inhibition of 100%.
With `Cc1nocc1C(=O)Nc1sc2c(c1C(N)=O)CCCC2` the inhibition was 100%.
Compound `Cc1cc(C(=O)Nc2sc(Cc3ccccc3)cc2C(N)=O)cc(C)c1O` has an inhibition of 100%.
`NC(=O)c1cc(Cc2ccccc2)sc1NC(=O)c1cccc2[nH]ccc12` showed an inhibition of 100%.
Work on `C#CC(=O)N(c1ccccc1)c1sc(C(C)C)cc1C(N)=O` yielded an inhibition of 100%.
For `CC(c1ccccc1)c1cc(C(N)=O)c(NC(=O)CC2CCc3ccccc32)s1` (stereo not given), the inhibition was 100%.
With `CN1CCc2c(sc(NC(=O)/C=C\C(=O)Nc3ccc(Cl)cc3)c2C(N)=O)C1` the inhibition was 100%.
`Cc1ccc(C(=O)Nc2sc(C(C)C)cc2C(N)=O)cc1C` showed an inhibition of 100%.
`CC(C)c1cc(C(N)=O)c(NC(=O)C2CC3C=CC2C3)s1` (stereo not given) showed an inhibition of 100%.
With `Cc1sc(NC(=O)c2ccc(Cl)cc2Cl)c(C(N)=O)c1C` the inhibition was 100%.
`CC(c1ccccc1)c1cc(C(N)=O)c(NC(=O)c2cccc3cccnc23)s1` (stereo not given) was tested, and the inhibition was 100%.
Work on `NC(=O)c1cc(-c2ccccc2)sc1NC(=O)C(O)c1ccccc1` (stereo not given) yielded an inhibition of 100%.
With `NC(=O)c1cc(Cc2ccccc2)sc1NC(=O)/C=C\c1cccc(O)c1` the inhibition was 100%.
`Cc1sc(NC(=O)Cn2cc(C)c(=O)[nH]c2=O)c(C(N)=O)c1C` gave an inhibition of 100%.
Compound `CC(c1ccccc1)c1cc(C(N)=O)c(NC(=O)c2cccc(Cl)c2O)s1` (stereo not given) has an inhibition of 100%.
Work on `CC#CC(=O)Nc1sc2c(c1C(N)=O)CCCC2` yielded an inhibition of 100%.
Compound `CN1CCc2c(sc(NC(=O)c3cc4c(Cl)cc(Cl)cc4[nH]3)c2C(N)=O)C1` has an inhibition of 100%.
`Cc1cccc(C(=O)Nc2sc(C(C)C)cc2C(N)=O)c1C` showed an inhibition of 100%.
With `COc1ccc(OC)c(/C=C\C(=O)Nc2scc(C)c2C(N)=O)c1` the inhibition was 100%.
In the case of `CC(C)=NOC(C)C(=O)Nc1sc(C(C)C)cc1C(N)=O` (stereo not given), the inhibition is reported as 100%.
With `Cc1csc(NC(=O)c2ccc(S(C)(=O)=O)cc2)c1C(N)=O` the inhibition was 100%.
For `Cc1cnc(C(=O)Nc2sc(C(C)C)cc2C(N)=O)cn1`, the inhibition was 100%.
For `COc1ccc(/C=C\C(=O)Nc2scc(C)c2C(N)=O)c(OC)c1`, the inhibition was 100%.
For `COc1cccc(/C=C\C(=O)Nc2scc(C)c2C(N)=O)c1OC`, the inhibition was 100%.
With `CC(C)c1cc(C(N)=O)c(NC(=O)c2ccc(C#N)cc2)s1` the inhibition was 100%.
`Cc1csc(NC(=O)c2cccc(S(C)(=O)=O)c2)c1C(N)=O` showed an inhibition of 100%.
`Cc1csc(NC(=O)CNC(=O)c2ccccc2O)c1C(N)=O` was tested, and the inhibition was 100%.
`C=CCN(C(C)=O)C(=O)CNc1sc(-c2ccccc2)cc1C(N)=O` was tested, and the inhibition was 100%.
`CC(=O)NC(Cc1c[nH]cn1)C(=O)Nc1sc2c(c1C(N)=O)CCN(C)C2` (stereo not given) gave an inhibition of 100%.
In the case of `Cc1csc(NC(=O)c2ccc(S(N)(=O)=O)cc2)c1C(N)=O`, the inhibition is reported as 100%.
`NC(=O)c1c(N2C(=O)CCC2C(N)=O)sc2c1CCCC2` (stereo not given) showed an inhibition of 100%.
With `NC(=O)CN(C(=O)c1ccco1)c1sc(Cc2ccccc2)cc1C(N)=O` the inhibition was 100%.
`Cc1csc(NC(=O)Cc2c(C)[nH]c3ccccc23)c1C(N)=O` was tested, and the inhibition was 100%.
With `NC(=O)c1cc(-c2ccccc2)sc1NC(=O)c1ccc(Cl)nc1` the inhibition was 100%.
In the case of `NC(=O)c1ccccc1C(=O)Nc1sc(Cc2ccccc2)cc1C(N)=O`, the inhibition is reported as 100%.
Work on `CC(C)c1cc(C(N)=O)c(NC(=O)Cc2ccsc2)s1` yielded an inhibition of 100%.
For `CC(C)c1cc(C(N)=O)c(NC(=O)c2ccc(O)cc2)s1`, the inhibition was 100%.
`CC(c1ccccc1)c1cc(C(N)=O)c(NC(=O)c2ccc(O)c(Cl)c2)s1` (stereo not given) gave an inhibition of 100%.
Work on `Cc1csc(NC(=O)c2cnn(-c3ccccc3)c2C)c1C(N)=O` yielded an inhibition of 100%.
In the case of `Cc1sc(NC(=O)Cc2c[nH]c3ccccc23)c(C(N)=O)c1C`, the inhibition is reported as 100%.
`COc1cc(OC)cc(C(=O)Nc2sc(C)c(C)c2C(N)=O)c1` showed an inhibition of 100%.
With `COc1ccc(C(=O)Nc2sc(Cc3ccccc3)cc2C(N)=O)cc1O` the inhibition was 100%.
`NC(=O)c1cc(-c2ccccc2)sc1NC(=O)c1cccnc1Cl` gave an inhibition of 100%.
